{"source": "patent US20260167608A1", "about": "“CRYSTALLINE FORMS OF 4-(7-HYDROXY-2-ISOPROPYL-4-OXO-4H-QUINAZOLIN-3-YL)-BENZONITRILE AND FORMULATIONS THEREOF” (Bausch + Lomb Ireland Limited, priority 2019, published 2026)", "key": {"[1]": {"assay": "Hygroscopicity (water uptake) of crystal form E", "format": "physicochemical", "protocol": "The maximum water uptake is less than 0.1% at 25° C. up to 92% relative humidity."}, "[2]": {"assay": "Equilibration with solvent at 25° C., solid investigated by XRPD", "format": "physicochemical", "parameters": "key to XRPD change after equilibration: “−”: no change detected; “+”: change detected; “//”: not carried out because substance too soluble in the solvent", "protocol": "Equilibration with Solvent at 25° C.\nFor equilibration at 25° C., about 50 mg of compound I was equilibrated with 1 ml solvent for 24 h in a water bath at 25° C.±0.1. The solutions were filtered and dried for 10 minutes in the air. The solid part was investigated by XRPD (X-ray powder diffraction). If differences were observed additional investigations were performed as appropriate (e.g. DSC, TG, IR, SEM).\nThe X-ray powder diffraction (XRPD) patterns described herein were recorded on a Bruker D8 Advance diffractometer using CuKα radiation. The XRPD pattern was recorded between 2° and 40° (2-theta)."}, "[3]": {"assay": "Intrinsic dissolution rate at 37° C.", "format": "physicochemical"}, "[4]": {"assay": "Solubility of crystal form E at 25° C., analysis by HPLC", "format": "physicochemical", "details": "thermodynamic from solid", "protocol": "Solubility of crystal form E was measured at 25° C."}, "[5]": {"assay": "Pharmacokinetic study of exploratory formulations, single bilateral topical ocular dosing", "format": "in vivo, rabbit", "details": "male NZW rabbits", "protocol": "A pharmacokinetics study was conducted to determine the ocular uptake of compound I following single bilateral topical ocular dosing of male NZW rabbits with the same four exploratory formulations provided in Table 13: FID 12152, FID 121511, FID 121512, FID 121513."}, "[6]": {"assay": "Exploratory formulation stability at room temperature and 40° C. (UPLC assay)", "format": "physicochemical", "details": "part of compound I in solution in the supernatant; after 12 weeks at 40° C.", "protocol": "Based on the limited solubility of compound I in various solvents and in water, a suspension formulation was explored for development. The following five formulations were prepared and tested for stability. Formulations were stored in crimp-sealed glass vials at room temperature and at 40° C. At 6, 8 and 12 weeks, samples were evaluated for compound I stability.\nThe formulations prepared in Table 13 were assayed using an exploratory UPLC method developed for the assay of compound I as shown in Table 14.\nResults from the testing for compound I stability at room temperature and 40° C. are shown in FIG. 14A and FIG. 14B, respectively. […] In contrast, the part of compound I in solution in the supernatant degrades to about 20% of initial amount after 12 weeks at 40° C."}, "[7]": {"assay": "Conversion of crystal form C in 1:1 mixtures with other crystal forms in solvent", "format": "physicochemical"}, "[8]": {"details": "equilibration at 25° C., solvent t-butylmethylether"}}, "data": [{"smiles": "CC(C)c1nc2cc(O)ccc2c(=O)n1-c1ccc(C#N)cc1", "note": "[Crystal form E, 4-(7-Hydroxy-2-isopropyl-4-oxo-4H-quinazolin-3-yl)-benzonitrile]", "values": [{"measurement": "hygroscopicity", "setting": "[1]", "value": "non-hygroscopic"}, {"measurement": "maximum water uptake", "setting": "[1]; at 25° C. up to 92% relative humidity", "value": "less than 0.1%"}, {"measurement": "Comments", "setting": "[2]; equilibration at 25° C., solvent Acetone", "value": "too soluble"}, {"measurement": "XRPD change after equilibration", "setting": "[2]; equilibration at 25° C., solvent Cyclohexane", "value": "−"}, {"measurement": "XRPD change after equilibration", "setting": "[2]; equilibration at 25° C., solvent Ethanol abs.", "value": "−"}, {"measurement": "XRPD change after equilibration", "setting": "[2]; equilibration at 25° C., solvent Ethyl acetate", "value": "−"}, {"measurement": "XRPD change after equilibration", "setting": "[2]; equilibration at 25° C., solvent Water", "value": "−"}, {"measurement": "Comments", "setting": "[2]; [8]", "value": "amorphous"}, {"measurement": "XRPD change after equilibration", "setting": "[2]; [8]", "value": "+"}, {"measurement": "Comments", "setting": "[2]; form E mixed with form B, equilibration at 25 degree C., solvent Ethanol abs.", "value": "converts into crystal form B"}, {"measurement": "Intrinsic dissolution rate (IDR) at 37° C.", "setting": "[3]; HCl 0.1 N", "value": 0.0194, "unit": "mg min^−1 cm^−2"}, {"measurement": "Intrinsic dissolution rate (IDR) at 37° C.", "setting": "[3]; pH 3", "value": 0.0025, "unit": "mg min^−1 cm^−2"}, {"measurement": "solubility", "setting": "[4]; acetate buffer pH 4.5, 25 °C, aqueous buffer, Buffer pH 4.5 (acetate)", "value": 10, "unit": "µg/mL"}, {"measurement": "solubility", "setting": "[4]; buffer pH 1 (0.1 N HCl), 25 °C, pH 1, simulated gastric fluid", "value": 345, "unit": "µg/mL"}, {"measurement": "solubility", "setting": "[4]; phosphate buffer pH 6.88, 25 °C, aqueous buffer, Buffer pH 6.88 (phosphate)", "value": 11, "unit": "µg/mL"}]}, {"smiles": "CC(C)c1nc2cc(O)ccc2c(=O)n1-c1ccc(C#N)cc1", "note": "[compound I, 4-(7-hydroxy-2-isopropyl-4-oxo-4H-quinazolin-3-yl)-benzonitrile]", "values": [{"measurement": "exposure in the cornea, times the levels in plasma", "setting": "[5]", "value": "approximately 500 times"}, {"measurement": "exposure in the cornea, times the levels in the aqueous humor and iris-ciliary body", "setting": "[5]", "value": "approximately 10 times"}, {"measurement": "compound I remaining, of initial amount", "setting": "[6]", "value": "about 20%"}]}, {"smiles": "CC(C)c1nc2cc(O)ccc2c(=O)n1-c1ccc(C#N)cc1", "note": "[Crystal form C, 4-(7-Hydroxy-2-isopropyl-4-oxo-4H-quinazolin-3-yl)-benzonitrile]", "values": [{"measurement": "conversion of crystal form", "setting": "[7]; 1:1 mixture with crystal form A, in methanol", "value": "converted in methanol to Solvate SB (crystal form G)"}, {"measurement": "conversion of crystal form", "setting": "[7]; 1:1 mixture with crystal form B, in isopropanol", "value": "converted in isopropanol to crystal form B"}]}]}
